Experiments:
Assay in all cases: KINOMEscan competition binding
Settings in all cases: compound 10.0 µM
[1] = molecular target: KDR (human) (UniProt P35968)
[2] = molecular target: MAP3K11 (human) (UniProt Q16584)
[3] = molecular target: MAP2K5 (human) (UniProt Q13163)
[4] = molecular target: JAK1 JH2 pseudokinase (human) (UniProt P23458)
[5] = molecular target: SIK2 (human) (UniProt Q9H0K1)
[6] = molecular target: RPS6KA1 KD2 (human) (UniProt Q15418)
[7] = molecular target: MINK1 (human) (UniProt Q8N4C8)
[8] = molecular target: NIM1 (human) (UniProt Q8IY84)
[9] = molecular target: TIE1 (human) (UniProt P35590)
[10] = molecular target: CSNK2A2 (human) (UniProt P19784)
[11] = molecular target: TNK1 (human) (UniProt Q13470)
[12] = molecular target: PLK4 (human) (UniProt O00444)
[13] = molecular target: PRKCH (human) (UniProt P24723)
[14] = test system: PIK3CA (human), P42336 [I800L]
[15] = molecular target: CDKL5 (human) (UniProt O76039)
[16] = molecular target: PKN1 (human) (UniProt Q16512)
[17] = molecular target: PLK2 (human) (UniProt Q9NYY3)
[18] = molecular target: GSK3A (human) (UniProt P49840)
[19] = molecular target: ACVRL1 (human) (UniProt P37023)
[20] = molecular target: PRKX (human) (UniProt P51817)
[21] = molecular target: EPHA5 (human) (UniProt P54756)
[22] = molecular target: AXL (human) (UniProt P30530)
[23] = molecular target: TNK2 (human) (UniProt Q07912)
[24] = molecular target: DAPK2 (human) (UniProt Q9UIK4)
[25] = test system: EIF2AK4 KD2 (human), Q9P2K8 [S808G]
[26] = molecular target: MYO3A (human) (UniProt Q8NEV4)
[27] = molecular target: RPS6KB1 (human) (UniProt P23443)
[28] = molecular target: FGFR1 (human) (UniProt P11362)
[29] = molecular target: CDKL1 (human) (UniProt Q00532)
[30] = molecular target: CDK14 (human) (UniProt O94921)
[31] = molecular target: PRKD1 (human) (UniProt Q15139)
[32] = molecular target: CSNK1G1 (human) (UniProt Q9HCP0)
[33] = molecular target: JAK2 JH1 catalytic (human) (UniProt O60674)
[34] = molecular target: PIP4K2B (human) (UniProt P78356)
[35] = test system: EGFR (human), P00533 [G719S]
[36] = molecular target: PIK3CB (human) (UniProt P42338)
[37] = molecular target: FLT1 (human) (UniProt P17948)
[38] = molecular target: LYN (human) (UniProt P07948)
[39] = molecular target: CDK17 (human) (UniProt Q00537)
[40] = molecular target: ALK (human) (UniProt Q9UM73)

FGFR1 (human), sequence (P11362 whole entry, looked up): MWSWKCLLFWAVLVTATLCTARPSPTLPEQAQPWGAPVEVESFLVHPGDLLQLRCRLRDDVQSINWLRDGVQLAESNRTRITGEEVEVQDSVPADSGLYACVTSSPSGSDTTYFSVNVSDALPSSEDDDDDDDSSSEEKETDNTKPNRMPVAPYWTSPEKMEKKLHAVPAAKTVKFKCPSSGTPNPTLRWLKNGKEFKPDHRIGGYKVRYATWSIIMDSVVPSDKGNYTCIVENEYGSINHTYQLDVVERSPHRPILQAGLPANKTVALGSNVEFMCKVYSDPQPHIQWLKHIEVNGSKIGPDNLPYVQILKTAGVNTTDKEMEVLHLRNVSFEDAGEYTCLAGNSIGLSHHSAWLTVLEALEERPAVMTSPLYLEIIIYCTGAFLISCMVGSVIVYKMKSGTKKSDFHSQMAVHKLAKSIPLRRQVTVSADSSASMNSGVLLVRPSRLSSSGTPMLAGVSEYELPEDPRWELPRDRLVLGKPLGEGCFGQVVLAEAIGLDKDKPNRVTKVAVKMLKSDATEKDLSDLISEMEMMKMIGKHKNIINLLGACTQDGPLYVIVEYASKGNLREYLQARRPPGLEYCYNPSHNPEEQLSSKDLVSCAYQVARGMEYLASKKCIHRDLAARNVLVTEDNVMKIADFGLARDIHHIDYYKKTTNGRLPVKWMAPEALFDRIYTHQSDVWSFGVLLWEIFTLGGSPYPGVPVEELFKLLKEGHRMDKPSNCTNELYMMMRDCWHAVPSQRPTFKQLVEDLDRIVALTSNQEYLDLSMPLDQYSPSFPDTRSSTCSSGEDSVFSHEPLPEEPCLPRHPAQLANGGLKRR
AXL (human), sequence (P30530 whole entry, looked up): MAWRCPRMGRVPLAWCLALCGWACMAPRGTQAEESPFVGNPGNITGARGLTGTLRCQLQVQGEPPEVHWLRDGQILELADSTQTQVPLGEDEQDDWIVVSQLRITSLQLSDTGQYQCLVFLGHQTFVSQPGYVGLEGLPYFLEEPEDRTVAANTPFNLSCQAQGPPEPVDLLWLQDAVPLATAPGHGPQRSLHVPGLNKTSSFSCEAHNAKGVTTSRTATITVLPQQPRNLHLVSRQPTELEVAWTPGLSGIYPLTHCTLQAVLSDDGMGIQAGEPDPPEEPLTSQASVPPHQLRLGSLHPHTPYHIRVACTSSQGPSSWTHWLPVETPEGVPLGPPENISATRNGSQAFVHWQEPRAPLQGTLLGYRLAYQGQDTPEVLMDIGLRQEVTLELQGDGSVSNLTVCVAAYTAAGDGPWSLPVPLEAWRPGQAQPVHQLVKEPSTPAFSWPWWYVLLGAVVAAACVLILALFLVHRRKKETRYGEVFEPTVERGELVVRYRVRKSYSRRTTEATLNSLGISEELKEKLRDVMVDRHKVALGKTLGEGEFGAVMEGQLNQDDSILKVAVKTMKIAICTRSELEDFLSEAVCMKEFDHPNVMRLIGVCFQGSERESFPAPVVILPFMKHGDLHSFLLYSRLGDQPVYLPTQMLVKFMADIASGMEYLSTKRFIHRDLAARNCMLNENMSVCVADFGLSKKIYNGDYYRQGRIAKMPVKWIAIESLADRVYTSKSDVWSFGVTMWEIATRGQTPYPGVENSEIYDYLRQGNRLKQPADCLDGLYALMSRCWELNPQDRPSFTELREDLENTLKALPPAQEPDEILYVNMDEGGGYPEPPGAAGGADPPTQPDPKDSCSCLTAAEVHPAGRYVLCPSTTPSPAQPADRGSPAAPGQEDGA
CDKL5 (human), sequence (O76039 whole entry, looked up): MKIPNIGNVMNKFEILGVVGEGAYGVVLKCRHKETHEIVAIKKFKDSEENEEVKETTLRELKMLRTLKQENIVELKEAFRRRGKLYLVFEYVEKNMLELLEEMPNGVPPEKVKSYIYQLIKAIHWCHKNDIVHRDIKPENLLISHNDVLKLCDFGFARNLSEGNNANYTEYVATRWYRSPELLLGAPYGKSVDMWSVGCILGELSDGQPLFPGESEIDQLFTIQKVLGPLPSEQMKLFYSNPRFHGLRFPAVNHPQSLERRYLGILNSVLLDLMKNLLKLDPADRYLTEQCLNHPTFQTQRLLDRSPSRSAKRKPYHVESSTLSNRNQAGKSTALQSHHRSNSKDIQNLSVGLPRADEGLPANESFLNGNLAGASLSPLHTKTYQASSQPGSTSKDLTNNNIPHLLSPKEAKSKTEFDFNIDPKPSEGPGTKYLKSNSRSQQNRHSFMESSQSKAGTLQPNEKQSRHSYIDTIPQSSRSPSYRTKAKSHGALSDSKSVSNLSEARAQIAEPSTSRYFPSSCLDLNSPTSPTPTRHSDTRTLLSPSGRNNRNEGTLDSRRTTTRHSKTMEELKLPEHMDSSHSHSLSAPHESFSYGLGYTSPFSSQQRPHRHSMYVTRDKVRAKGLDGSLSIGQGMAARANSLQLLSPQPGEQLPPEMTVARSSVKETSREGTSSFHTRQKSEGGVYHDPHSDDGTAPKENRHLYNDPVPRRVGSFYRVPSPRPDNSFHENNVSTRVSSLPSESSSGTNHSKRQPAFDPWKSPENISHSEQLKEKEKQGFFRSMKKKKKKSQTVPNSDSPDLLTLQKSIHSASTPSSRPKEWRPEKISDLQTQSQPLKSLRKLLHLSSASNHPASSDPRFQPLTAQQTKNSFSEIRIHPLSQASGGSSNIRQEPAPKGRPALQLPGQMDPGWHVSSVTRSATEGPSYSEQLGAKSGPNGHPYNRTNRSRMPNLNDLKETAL
PLK2 (human), sequence (Q9NYY3 whole entry, looked up): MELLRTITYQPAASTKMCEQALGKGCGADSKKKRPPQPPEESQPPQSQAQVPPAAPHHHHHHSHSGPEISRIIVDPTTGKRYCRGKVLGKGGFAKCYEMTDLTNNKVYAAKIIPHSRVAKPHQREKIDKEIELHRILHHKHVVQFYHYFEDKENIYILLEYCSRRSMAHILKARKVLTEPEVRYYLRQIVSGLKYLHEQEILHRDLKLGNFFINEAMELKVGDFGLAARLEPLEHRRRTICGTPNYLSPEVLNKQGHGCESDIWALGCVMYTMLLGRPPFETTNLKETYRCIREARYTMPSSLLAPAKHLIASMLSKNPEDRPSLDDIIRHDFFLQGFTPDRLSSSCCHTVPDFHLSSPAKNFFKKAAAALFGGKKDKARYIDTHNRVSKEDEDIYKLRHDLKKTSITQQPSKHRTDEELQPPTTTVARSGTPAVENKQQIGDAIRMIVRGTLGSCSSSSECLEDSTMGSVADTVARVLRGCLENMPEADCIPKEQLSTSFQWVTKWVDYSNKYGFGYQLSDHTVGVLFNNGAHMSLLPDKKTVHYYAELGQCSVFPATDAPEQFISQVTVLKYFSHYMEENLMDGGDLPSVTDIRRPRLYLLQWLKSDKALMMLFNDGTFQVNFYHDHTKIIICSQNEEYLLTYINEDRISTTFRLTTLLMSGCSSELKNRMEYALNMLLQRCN
TNK2 (human), sequence (Q07912 whole entry, looked up): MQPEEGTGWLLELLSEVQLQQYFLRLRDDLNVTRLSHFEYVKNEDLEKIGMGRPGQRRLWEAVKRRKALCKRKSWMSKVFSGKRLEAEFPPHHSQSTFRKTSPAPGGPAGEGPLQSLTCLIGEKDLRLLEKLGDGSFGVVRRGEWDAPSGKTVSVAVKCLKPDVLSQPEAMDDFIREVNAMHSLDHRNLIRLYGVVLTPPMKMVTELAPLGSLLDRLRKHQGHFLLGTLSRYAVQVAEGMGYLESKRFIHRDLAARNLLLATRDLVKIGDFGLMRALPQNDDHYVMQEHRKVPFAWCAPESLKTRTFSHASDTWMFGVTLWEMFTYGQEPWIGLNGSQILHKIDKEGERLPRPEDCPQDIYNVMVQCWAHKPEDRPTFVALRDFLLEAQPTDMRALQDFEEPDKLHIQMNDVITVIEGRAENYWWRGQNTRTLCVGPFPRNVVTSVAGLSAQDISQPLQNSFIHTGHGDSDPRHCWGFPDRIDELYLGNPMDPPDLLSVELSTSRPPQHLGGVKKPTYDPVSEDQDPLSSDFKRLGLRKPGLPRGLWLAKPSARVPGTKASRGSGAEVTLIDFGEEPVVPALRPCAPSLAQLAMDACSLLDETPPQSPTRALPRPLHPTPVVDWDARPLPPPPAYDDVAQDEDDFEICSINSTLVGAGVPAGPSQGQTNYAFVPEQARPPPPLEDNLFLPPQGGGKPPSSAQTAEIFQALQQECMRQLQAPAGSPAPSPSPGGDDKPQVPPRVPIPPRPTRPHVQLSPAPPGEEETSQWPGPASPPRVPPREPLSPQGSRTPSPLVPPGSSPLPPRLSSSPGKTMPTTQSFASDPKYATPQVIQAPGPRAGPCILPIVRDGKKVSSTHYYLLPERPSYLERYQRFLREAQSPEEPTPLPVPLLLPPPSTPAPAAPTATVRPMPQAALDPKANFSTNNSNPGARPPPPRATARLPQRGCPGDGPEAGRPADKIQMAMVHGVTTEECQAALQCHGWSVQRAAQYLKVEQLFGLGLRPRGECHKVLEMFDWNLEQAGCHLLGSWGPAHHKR
CSNK2A2 (human), sequence (P19784 whole entry, looked up): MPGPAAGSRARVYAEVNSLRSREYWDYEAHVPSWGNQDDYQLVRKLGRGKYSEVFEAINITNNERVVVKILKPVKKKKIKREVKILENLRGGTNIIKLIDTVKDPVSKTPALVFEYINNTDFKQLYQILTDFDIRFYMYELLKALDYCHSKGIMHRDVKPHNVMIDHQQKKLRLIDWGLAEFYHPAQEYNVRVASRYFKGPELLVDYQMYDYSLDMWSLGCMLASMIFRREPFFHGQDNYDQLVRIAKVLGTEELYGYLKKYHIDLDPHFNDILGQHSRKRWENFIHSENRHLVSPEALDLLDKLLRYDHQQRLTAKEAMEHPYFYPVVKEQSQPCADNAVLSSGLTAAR

Compound | kinase still bound, per cent of control [1] | kinase still bound, per cent of control [2] | kinase still bound, per cent of control [3] | kinase still bound, per cent of control [4] | kinase still bound, per cent of control [5] | kinase still bound, per cent of control [6] | kinase still bound, per cent of control [7] | kinase still bound, per cent of control [8] | kinase still bound, per cent of control [9] | kinase still bound, per cent of control [10] | kinase still bound, per cent of control [11] | kinase still bound, per cent of control [12] | kinase still bound, per cent of control [13] | kinase still bound, per cent of control [14] | kinase still bound, per cent of control [15] | kinase still bound, per cent of control [16] | kinase still bound, per cent of control [17] | kinase still bound, per cent of control [18] | kinase still bound, per cent of control [19] | kinase still bound, per cent of control [20] | further results
Nc1ccc(-c2ccc3ncc4ccc(=O)n(-c5cccc(C(F)(F)F)c5)c4c3c2)cn1 | 100% | 96% | 84% | 13% | 73% | 100% | 56% | 100% | 100% | 48% | 100% | 100% | 99% | 0% | 100% | 100% | 100% | 100% | 59% | 100% | kinase still bound, per cent of control [21]: 100%; kinase still bound, per cent of control [22]: 74%; kinase still bound, per cent of control [23]: 100%; kinase still bound, per cent of control [24]: 100%; kinase still bound, per cent of control [25]: 100%; kinase still bound, per cent of control [26]: 100%; kinase still bound, per cent of control [27]: 86%; kinase still bound, per cent of control [28]: 95%; kinase still bound, per cent of control [29]: 97%; kinase still bound, per cent of control [30]: 97%; kinase still bound, per cent of control [31]: 87%; kinase still bound, per cent of control [32]: 100%; kinase still bound, per cent of control [33]: 64%; kinase still bound, per cent of control [34]: 100%; kinase still bound, per cent of control [35]: 88%; kinase still bound, per cent of control [36]: 6.6%; kinase still bound, per cent of control [37]: 100%; kinase still bound, per cent of control [38]: 100%; kinase still bound, per cent of control [39]: 98%; kinase still bound, per cent of control [40]: 100%
O=C(NC1CC1)c1cccc(-c2ccc3c(NC(=O)C4CC4)n[nH]c3c2)c1 | 93% | 100% | 5% | 84% | 91% | 68% | 43% | 100% | 31% | 16% | 100% | 13% | 100% | 100% | 42% | 100% | 88% | 84% | 100% | 100% | kinase still bound, per cent of control [21]: 95%; kinase still bound, per cent of control [22]: 54%; kinase still bound, per cent of control [23]: 100%; kinase still bound, per cent of control [24]: 87%; kinase still bound, per cent of control [25]: 96%; kinase still bound, per cent of control [26]: 72%; kinase still bound, per cent of control [27]: 100%; kinase still bound, per cent of control [28]: 100%; kinase still bound, per cent of control [29]: 58%; kinase still bound, per cent of control [30]: 46%; kinase still bound, per cent of control [31]: 100%; kinase still bound, per cent of control [32]: 85%; kinase still bound, per cent of control [33]: 18%; kinase still bound, per cent of control [34]: 5.6%; kinase still bound, per cent of control [35]: 85%; kinase still bound, per cent of control [36]: 100%; kinase still bound, per cent of control [37]: 100%; kinase still bound, per cent of control [38]: 83%; kinase still bound, per cent of control [39]: 37%; kinase still bound, per cent of control [40]: 100%
Cc1ccc(NC(=O)c2cccc(C(C)(C)C#N)c2)cc1Nc1ccc2ncn(C)c(=O)c2c1 | 2.3% | 91% | 0.7% | 82% | 77% | 87% | 7.2% | 100% | 11% | 100% | 100% | 87% | 100% | 100% | 93% | 100% | 99% | 100% | 100% | 100% | kinase still bound, per cent of control [21]: 1%; kinase still bound, per cent of control [22]: 75%; kinase still bound, per cent of control [23]: 100%; kinase still bound, per cent of control [24]: 100%; kinase still bound, per cent of control [25]: 85%; kinase still bound, per cent of control [26]: 100%; kinase still bound, per cent of control [27]: 100%; kinase still bound, per cent of control [28]: 59%; kinase still bound, per cent of control [29]: 100%; kinase still bound, per cent of control [30]: 100%; kinase still bound, per cent of control [31]: 67%; kinase still bound, per cent of control [32]: 88%; kinase still bound, per cent of control [33]: 100%; kinase still bound, per cent of control [34]: 100%; kinase still bound, per cent of control [35]: 37%; kinase still bound, per cent of control [36]: 100%; kinase still bound, per cent of control [37]: 4.4%; kinase still bound, per cent of control [38]: 0.3%; kinase still bound, per cent of control [39]: 100%; kinase still bound, per cent of control [40]: 93%

— the kinase profiling compilation of Christmann-Franck et al. (2016)
